In article PMC10354055, “An optimized Nurr1 agonist provides disease-modifying effects in Parkinson’s disease models” (Nature Communications, 2023):
Several values for one entry are separate records, joined by “and”; a condition that tells them apart may be missing. Identical values can stand only once.

Legend:
MPTP-induced male mice [1] = experiment: AIMs scoring (dyskinesia), MPTP-induced PD model mice; type: in vivo, mouse; details: for abnormal involuntary movements (AIMs) (in words): CQ 40, 4A7C-301 5, L-DOPA 50 mg/kg/day, i.p.; for AIMs score (20-140 min): Figure 4f, MPTP-induced mice, individual animal values
Description: (§1) Male C57BL/6 J mice (8–10 weeks, 25–30 g; Jackson Laboratories) were randomly assigned to 5 groups including vehicle (VEH), MPTP, MPTP + L-DOPA, MPTP + CQ and MPTP + 4A7C-301 (n ≥ 7 for each group). MPTP (Sigma-Aldrich) was intraperitoneally (i.p.) injected (30 mg/kg) for 5 days (Day 1-5). Different dosages of CQ (20, 40, and 80 mg/kg) and 4A7C-301 (1, 5, 20 mg/kg) were first tested to determine the effective dose window, then 40 and 5 mg/kg doses were finally selected for CQ and 4A7C-301 respectively to show the most prominent effects. CQ or 4A7C-301 was dissolved in PBS and administrated (i.p.) for 16 days starting with MPTP injection (Day 1-16). To test dyskinetic involuntary behavior, an L-DOPA injected group was included, which received 50 mg/kg of L-DOPA and 15 mg/kg of benserazide (Sigma-Aldrich) (i.p.) for 16 days (Day 1–16). All compounds were administered 6 h post-MPTP injection to avoid any effect of compounds on the MPTP metabolism in the brain. Motor and non-motor related behavior tests were performed on the following days as described in Fig. 4a in an assessor- and observer-blinded fashion. Pre-training and baseline setup for motor-related behaviors were performed 3 days prior to the injections. Mice were sacrificed and subjected to immunohistochemistry. Mice were housed at the Animal Care Facilities of McLean Hospital under a 12-h light/12-h dark cycle, ambient temperature and humidity. Animals were handled in accordance with McLean Hospital’s Institutional Animal Care and Use Committee (Protocol #: 2015N000002) and followed National Institutes of Health guidelines.
Abnormal involuntary movements (AIMs) were scored using the developed mouse dyskinesia rating scale as described in Sebastianutto et al.. Briefly, 4 mice were recorded simultaneously with a Swann HD Security System (B&H Photo-Video Inc.) for 2 min per session, every 20 min during the 140 min following drug injections (i.e., total 7 sessions), on every other or third day (Day 2, 4, 7, 9, 11, 13, and 16). Dyskinetic movements were scored for 3 subtypes of basic AIMs including axial, forelimb and orolingual AIMs, based on the severity scale from 0 to 4 which measures the duration of AIMs (0 = no dyskinesia; 1 = display dyskinesia for <50% of the observation time; 2 = display dyskinesia for >50% of the observation time; 3 = display dyskinesia for the entire observation period but ceased upon external stimuli; 4 = display continuous and unceasing dyskinesia). To get a better and more sensitive validation of mice dyskinesia, we included an amplitude AIMs score, which rates the degree of deviation of body part or muscle position from its resting position on a 0-4 scale as previously described. Finally, global AIMs score was calculated by multiplying basic AIMs and amplitude AIMs scores for each subtype on each session. Data points were plotted as the grand total of individual AIMs score on each testing day.

Nurr1-LBD [2] = molecular target: T1, Nurr1-LBD (Mus musculus, UniProt Q06219); experiment: Luciferase reporter assay, Nurr1-LBD, N27-A cells; type: cell-based; details: for EC50: Supplementary Fig. 1d,e
T1 construct: transfected with pCMV-fNurr1, pGAL-Nurr1(LBD), pGAL-Nor1(LBD) or pGAL-Nur77(LBD) and reporter construct; expressed in transfected cells; host or cells: SK-N-BE(2)C (human neuroblastoma), N27-A (rat dopaminergic), MN9D (murine dopaminergic)
T1 sequence (Q06219 360-595 limits assumed): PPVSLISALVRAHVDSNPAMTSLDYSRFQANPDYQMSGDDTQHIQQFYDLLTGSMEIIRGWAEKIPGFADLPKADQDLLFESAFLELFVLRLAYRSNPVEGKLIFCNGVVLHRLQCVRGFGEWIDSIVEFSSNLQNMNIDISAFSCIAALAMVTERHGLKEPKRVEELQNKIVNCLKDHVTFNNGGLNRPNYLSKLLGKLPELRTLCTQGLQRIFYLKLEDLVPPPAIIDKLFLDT
Source text: Nurr1 transactivity was normalized to β-galactosidase activity.

Nurr1-LBD [3] = molecular target: Nurr1-LBD (Homo sapiens, UniProt P43354); experiment: TR-FRET competition assay with HCQFluo; type: binding; details: Fig. 1i; for IC50: competition with HCQFluo
Sequence of Nurr1-LBD (Homo sapiens, UniProt P43354) (P43354 360-595 limits assumed, species assumed): as the sequence (Q06219 360-595 limits assumed) above
Description: TR-FRET assay was performed in PPI Terbium (Tb) detection buffer (PerkinElmer) and contained 0.2 µM of Nurr1-LBD, 0.5 µM of fluorescence-labeled hydroxy-CQ (HCQFluo; Proimaging) and serial concentrations of CQ, 4A7C-301 or RA (10^−4–10^6 nM). Rabbit anti-Nurr1 antibody (3 nM; prepared in our lab) and anti-rabbit IgG-Tb (1:400; Cisbio, 61PARTAF) were included in the assay solution as a donor complex. Assay solutions were loaded in a 384-well OptiPlate™ (PerkinElmer). After 2 h incubation in the dark at room temperature, the FRET signal was measured by excitation at 340 nm and emission at 520 nm for fluorescein and 495 nm for Tb using a VICTOR Nivo plate reader (PerkinElmer). Data were fit using the non-linear regression program in GraphPad Prism version 8.0.2.

MPTP-induced male mice [4] = experiment: Dopamine ELISA in SN and STR, MPTP-induced mice; type: in vivo, mouse; details: for DA: individual animals
Description: as §1, with “MPTP” for “Male C57BL/6 J mice (8–10 weeks, 25–30 g; Jackson Laboratories) were randomly assigned to 5 groups including vehicle (VEH), MPTP, MPTP + L-DOPA, MPTP + CQ and MPTP + 4A7C-301 (n ≥ 7 for each group). MPTP”, “Different dosages of CQ (20, 40, and 80 mg/kg) and 4A7C-301 (1, 5, 20 mg/kg) were first tested to determine the effective dose window, then 40 and 5 mg/kg doses were finally selected for CQ and 4A7C-301 respectively to show the most prominent effects. CQ or 4A7C-301 was dissolved in PBS and administrated (i.p.) for 16 days starting with MPTP injection (Day 1-16).” left out
For MPTP-induced mice, the left hemisphere of each group (n = 5) was used for analysis and compared to the vehicle-treated group (VEH). For AAV-αSyn-injected mouse model, the viral vector injected side (left hemisphere; ipsilateral) of each group (n = 3) was compared to the non-injected side (right hemisphere; contralateral).

N27-A cells = experiment: Cellular oxidative stress, DCFDA ROS assay, N27-A cells; type: cell-based, rat; details: for MPP+-induced ROS levels (in words): CQ 100 µM, 4A7C-301 1 µM; for ROS intensity (fold of control): Fig. S1i, with MPP+, replicates
Description: Cellular oxidative stress was detected using the DCFDA Cellular ROS Assay Kit (Abcam) according to the manufacturer’s protocol. Briefly, cells seeded in black clear bottom 96 well plate were stained with DCFDA solution (20 µM) for 45 min at 37 °C.

CCN1CCN(c2cc(N3CCN(CC)CC3)nc(NCCNc3ccnc4cc(Cl)ccc34)n2)CC1 [4A7C-301, N^1-(4,6-bis(4-ethylpiperazin-1-yl)pyrimidin-2-yl)-N^2-(7-chloroquinolin-4-yl)ethane-1,2-diamine]
abnormal involuntary movements (AIMs) (in words) (MPTP-induced male mice [1]): did not induce any detectable AIMs
AIMs score (20-140 min) (MPTP-induced male mice [1]; day 2): 0
AIMs score (20-140 min) (MPTP-induced male mice [1]; day 4): 0
AIMs score (20-140 min) (MPTP-induced male mice [1]; day 7): 0
AIMs score (20-140 min) (MPTP-induced male mice [1]; day 9): 0
AIMs score (20-140 min) (MPTP-induced male mice [1]; day 11): 0
AIMs score (20-140 min) (MPTP-induced male mice [1]; day 13): 0
AIMs score (20-140 min) (MPTP-induced male mice [1]; day 16): 0
potency relative to CQ (Nurr1-LBD [2]): approximately 50 times
EC50 (Nurr1-LBD [2]): ~0.2 µM
Interaction [HTRF] (Nurr1-LBD [3]; 0.05 µM): 3265.9820 and 3537.6830 and 3401.8330
Interaction [HTRF] (Nurr1-LBD [3]; 0.1 µM): 3598.5100 and 3223.1060 and 3410.8080
Interaction [HTRF] (Nurr1-LBD [3]; 0.5 µM): 3591.7500 and 3214.1330 and 3402.9410
Interaction [HTRF] (Nurr1-LBD [3]; 1 µM): 2993.5610 and 3208.3240 and 3100.9430
Interaction [HTRF] (Nurr1-LBD [3]; 5 µM): 3661.8470 and 3369.4680 and 3515.6580
Interaction [HTRF] (Nurr1-LBD [3]; 10 µM): 3348.5030 and 3240.2560 and 3294.3790
Interaction [HTRF] (Nurr1-LBD [3]; 50 µM): 3293.1070 and 2930.3900 and 3111.7480
Interaction [HTRF] (Nurr1-LBD [3]; 100 µM): 3045.7890 and 3264.7900 and 3155.2890
Interaction [HTRF] (Nurr1-LBD [3]; 200 µM): 3424.3450 and 3220.2860 and 3322.3150
IC50 (Nurr1-LBD [3]): 0.108 µM and 0.1 µM
DA levels in the SN (in words) (MPTP-induced male mice [4]): significantly restored
DA levels in the STR (in words) (MPTP-induced male mice [4]): significantly restored
DA (MPTP-induced male mice [4]; Supplementary Figure S10b): 62.619 pg/mL and 53.876 pg/mL and 49.863 pg/mL and 62.002 pg/mL and 54.392 pg/mL
DA (MPTP-induced male mice [4]; Supplementary Figure S10c): 384.546 pg/mL and 562.262 pg/mL and 361.203 pg/mL and 377.923 pg/mL and 404.591 pg/mL
MPP+-induced ROS levels (in words) (N27-A cells): significantly reduced
ROS intensity (fold of control) (N27-A cells; Control cells): 1.457 fold of control and 1.389 fold of control and 1.394 fold of control
ROS intensity (fold of control) (N27-A cells; Nurr1 KD cells): 2.059 fold of control and 2.042 fold of control and 2.017 fold of control
ROS intensity (fold of control) (N27-A cells; Nurr1 OE cells): 0.87 fold of control and 0.894 fold of control and 0.877 fold of control

CCN(CC)CCCC(C)Nc1ccnc2cc(Cl)ccc12 (stereo not shown) [CQ, chloroquine]
abnormal involuntary movements (AIMs) (in words) (MPTP-induced male mice [1]): did not induce any detectable AIMs
AIMs score (20-140 min) (MPTP-induced male mice [1]; day 2): 0
AIMs score (20-140 min) (MPTP-induced male mice [1]; day 4): 0
AIMs score (20-140 min) (MPTP-induced male mice [1]; day 7): 0
AIMs score (20-140 min) (MPTP-induced male mice [1]; day 9): 0
AIMs score (20-140 min) (MPTP-induced male mice [1]; day 11): 0
AIMs score (20-140 min) (MPTP-induced male mice [1]; day 13): 0
AIMs score (20-140 min) (MPTP-induced male mice [1]; day 16): 0
EC50 (Nurr1-LBD [2]): ~10 µM
Interaction [HTRF] (Nurr1-LBD [3]; 0.05 µM): 3273.3930 and 3465.5840 and 3369.4880
Interaction [HTRF] (Nurr1-LBD [3]; 0.1 µM): 3399.0860 and 3151.8330 and 3275.4590
Interaction [HTRF] (Nurr1-LBD [3]; 0.5 µM): 3111.7350 and 2901.1980 and 3006.4660
Interaction [HTRF] (Nurr1-LBD [3]; 1 µM): 2895.7250 and 2781.2580 and 2838.4910
Interaction [HTRF] (Nurr1-LBD [3]; 5 µM): 2113.6450 and 1994.2770 and 2053.9610
Interaction [HTRF] (Nurr1-LBD [3]; 10 µM): 1574.8930 and 1346.8690 and 1460.8810
Interaction [HTRF] (Nurr1-LBD [3]; 50 µM): 1485.2580 and 1344.1380 and 1414.6980
Interaction [HTRF] (Nurr1-LBD [3]; 100 µM): 1202.4890 and 1355.5820 and 1279.0350
Interaction [HTRF] (Nurr1-LBD [3]; 200 µM): 1193.4910 and 1136.9480 and 1165.2200
IC50 (Nurr1-LBD [3]): 2.33 µM and 2 µM
DA levels in the SN (in words) (MPTP-induced male mice [4]): did so only in the SN
DA levels in the STR (in words) (MPTP-induced male mice [4]): only in the SN
DA (MPTP-induced male mice [4]; Supplementary Figure S10b): 49.362 pg/mL and 39.048 pg/mL and 57.173 pg/mL and 55.478 pg/mL and 57.153 pg/mL
DA (MPTP-induced male mice [4]; Supplementary Figure S10c): 418.063 pg/mL and 471.117 pg/mL and 318.027 pg/mL and 389.411 pg/mL and 268.088 pg/mL
MPP+-induced ROS levels (in words) (N27-A cells): significantly reduced
